Laboratory results from patent US12145923B2, “Tetrahydroisoquinoline compound, preparation method therefor, pharmaceutical composition containing same, and use thereof” (SHANGHAI INSTITUTE OF MATERIA MEDICA, CHINESE ACADEMY OF …, priority 2018, dated 2024).
Like-named read-outs stand apart in the source and are kept apart here.

Columns and labels:
RAW 264.7 cells = assay: Cytotoxicity on RAW 264.7 cells (CCK-8 method); assay type: cell-based, mouse
[1] = Cytotoxicity on RAW 264.7 cells (CCK-8 method); assay type: cell-based, mouse; conditions: mouse, RAW 264.7 cells; drug concentration required to cause median cytotoxicity, RAW 264.7
Rat pharmacokinetic test = assay type: in vivo
Procedure: Six male healthy rats weighing 150-200 g were randomly divided into 2 groups (n=3). Compounds 14, 16, 17, 18, 22 and 29 of the present invention were administered by gavage and intravenous injection, respectively, at a administration volume of 10 mL/kg. The drug was formulated with DMSO/Tween 80/saline solution (5:5:90, v/v/v). The rats were fasted for 12 h before testing, water ad lib, and uniformly feeded 2 h after administration.
gavage administration: 0.25, 0.5, 1.0, 2.0, 4.0, 6.0, 8.0 and 24 h after administration:
intravenous administration: 5 min, 0.25, 0.5, 1.0, 2.0, 4.0, 6.0, 8.0 and 24 h after administration;
0.3 mL of venous blood was collected at the above time points via the rat eye vein venous plexus, placed in heparinized test tube, centrifuged at 11000 rpm for 5 min. Plasma was separated and frozed in a −20° C. refrigerator.
The concentration of compounds in rat plasma was determined by LC/MS/MS. The pharmacokinetic parameters after administration were calculated by a non-compartmental model of DAS 3.0 software.

[2] = system: tumor necrosis factor-α secretion in RAW 264.7 cells; assay: Inhibition of LPS-stimulated tumor necrosis factor-α secretion in RAW 264.7 cells (ELISA); assay type: cell-based, mouse
Procedure: After the activation by bacterial lipopolysaccharide (LPS), various inflammatory mediators such as tumor necrosis factor-α will be released; Phosphodiesterase PDE4 is also expressed in macrophages, and the inhibitory activity of the compound on phosphodiesterase PDE4 can be reflected by detecting the secretion of tumor necrosis factor-α.
Under the stimulation of 1 μg/ml LPS (L5886, Sigma, St. Louis, MO, USA), the cells were cultured in a 37° C., 5% CO2 incubator for 4 h. The background control with no stimulant and stimulation control wells were also set, with a total volume of 200 μl. The culture supernatant was collected by centrifugation, and the secretion level of tumor necrosis factor-α in the culture supernatant was detected by enzyme-linked immunosorbent assay. The tumor necrosis factor-α detection kit was purchased from BD Pharmingen (San Diego, CA, USA).

[3] = molecular target: Human PDE4D catalytic domain (Homo sapiens (Human), UniProt Q08499); assay: Scintillation Proximity Assay (SPA), inhibition of PDE4D catalytic domain activity; assay type: biochemical
Procedure: The scintillation Proximity Assay (SPA) method was used to determine the inhibitory effect of compounds on the activity of PDE4D catalytic domain. Human PDE4D catalytic domain protein was obtained by expression and purification in E. coli. […] [^3H]-cAMP, scintillation beads (RPNQO150, Perkin Elmer), and 96-well scintillation microplates (Isoplate-96, Perkin Elmer) were purchased from Perkin Elmer Company.
Finally, 10 μl [^3H]-cAMP (0.005 μCi/μl) was added and incubated for 30 min at 30° C. in a water bath. 50 μl SPA beads was added to quench the reaction, shaked appropriately, and stood for 20 minutes. A microplate scintillation counter was used.

TNF-α secretion in PBMC = assay: Inhibition of LPS-stimulated TNF-α secretion in PBMC (ELISA); assay type: cell-based; conditions: Homo sapiens, TNF-α secretion in PBMC
Text: According to the difference in cell density in human blood, PBMC (peripheral blood mononuclear cell, PBMC) was directly separated and purified by gradient centrifugation using lymphocyte separation fluid. The cell type was mononuclear cells in blood, mainly including lymphocytes (T/B), monocytes, macrophages, dendritic cells and other minor cell types, of which lymphocytes account for a large part, which can directly in vitro simulate the blood immune environment.
PBMC cells isolated from human blood were implanted into 96-well plates at 2*10^5/ml; compounds in gradients were added, with at least three replicates for each gradient; After the PBMCs were incubated at 37° C., 5% CO2 for 1 hour, LPS was added (the final concentration was 10 ug/ml) to stimulate PBMC to express TNF-α, and incubated for another 18-20 h at 37° C., 5% C02. The 96-well plate was collected. The background control with no stimulant and stimulation control wells were also set, with a total volume of 200 μl. The culture supernatant was collected by centrifugation, and the expression level of TNF-α in the culture supernatant was detected by ELISA.

[4] = system: acute inflammation model of mouse back air sac; assay: Acute inflammation model of mouse back air sac (carrageenan); assay type: in vivo; conditions: oral gavage 5 mg/kg
Procedure: On the first day of the experiment, mice were subcutaneously injected with 3 ml of air on the back, and subcutaneously injected with 1.5 ml of air on the back on day 3, and subcutaneously injected with 1 ml of 2% carrageenan (Sigma-Aldrich, St. Louis, MO, USA) on the back on day 6 for sensitization. 4 hours after sensitization, secretion in the air sac was lavaged with phosphate buffer solution. The lavage fluid was used for white blood cell count and inflammatory factor detection. […] Tumor necrosis factor-α and interleukin-6 detection kits were purchased from BD Pharmingen (San Diego, CA, USA).

[5] = Beagle dog pharmacokinetic test; assay type: in vivo
Procedure: Six male healthy beagle dogs weighing 9-11 kg were randomly divided into 2 groups (n=3). The compound (S)-C8 of the present invention was administered by gavage administration and intravenous injection, respectively, and the administration volume was 5 mL/kg and 1 mL/kg, respectively. The gavage administration was formulated with 0.5% CMC-Na+0.25% Tween 80, and intravenous administration was formulated with 5% DMSO/40% PEG400/55% saline.
• gavage administration: 0.25, 0.5, 1.0, 2.0, 4.0, 6.0, 8.0 and 24 h after administration; • intravenous administration: 5 min, 0.25, 0.5, 1.0, 2.0, 4.0, 6.0, 8.0 and 24 h after administration; • 1 ml of venous blood was taken at the above time points from the veins of the extremities, placed in an EDTA-2K anticoagulation tube, and centrifuged at 3500 rpm for 10 minutes. Plasma was separated, and frozen in a −20° C. refrigerator. 3. Sample Testing and Data Analysis
The concentration of compound (S)-C8 in Beagle dog plasma was determined by LC/MS/MS.
The pharmacokinetic parameters after administration were calculated by a non-compartmental model of Phoenix 1.3 software (Pharsight, USA).

[6] = male, plasma, intravenous injection, 10 mg/kg
[7] = male, plasma, po, gavage, 20 mg/kg
[8] = male, plasma, intravenous injection, 3 mg/kg
[9] = male, plasma, po, gavage, 10 mg/kg

Sequence of Human PDE4D catalytic domain (Q08499 386-715): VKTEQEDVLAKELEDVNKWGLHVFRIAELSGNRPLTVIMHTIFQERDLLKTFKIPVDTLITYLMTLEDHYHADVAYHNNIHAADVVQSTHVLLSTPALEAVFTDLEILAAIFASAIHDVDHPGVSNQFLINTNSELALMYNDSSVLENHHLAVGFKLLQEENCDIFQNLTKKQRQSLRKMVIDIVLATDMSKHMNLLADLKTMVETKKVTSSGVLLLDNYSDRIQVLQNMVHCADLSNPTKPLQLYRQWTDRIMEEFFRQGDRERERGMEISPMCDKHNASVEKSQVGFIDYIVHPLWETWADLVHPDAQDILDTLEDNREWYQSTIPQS

## CCOc1cc2c(cc1OC)CCN(C=O)[C@H]2CCc1c[nH]c2ccc(OC)cc12 [(S)-C8, (S)-7-ethoxy-6-methoxy-1-(2-(5-methoxy-1H-indol-3-yl)ethyl)-3,4-dihydroisoquinoline-2(1H)-formaldehyde]
RAW 264.7 cells; RAW 264.7, 0.5 μM
  Cell survival rate/%: 89.2%
RAW 264.7 cells; RAW 264.7, 5 μM
  Cell survival rate/%: 96.1%
RAW 264.7 cells; RAW 264.7, 50 μM
  Cell survival rate/%: 93.8%
[1]
  CC50 at 4 h: > 50000 nM
Rat pharmacokinetic test; gavage, 20 mg/kg
  AUC0-t: 491 ng·h/mL
  t1/2: 1.03 h
Rat pharmacokinetic test; intravenous injection, 10 mg/kg
  AUC0-t: 2640 ng·h/mL
Rat pharmacokinetic test; [6]
  AUC(0-inf): 2640 ng·h/mL
  MRT: 0.544 h
  half-life: 0.707 h
Rat pharmacokinetic test; male, plasma, intravenous injection, 10 mg/kg, read-out: Vss
  Vd: 2.1 L/kg
Rat pharmacokinetic test; male, plasma, iv, 10 mg/kg, intravenous injection, 10 mg/kg, read-out: AUC0-t
  AUC0-t: 2640 ng·h/mL
Rat pharmacokinetic test; male, plasma, oral, gavage 20 mg/kg vs intravenous 10 mg/kg, dosage standardized, read-out: F (absolute bioavailability)
  bioavailability: 9.3%
Rat pharmacokinetic test; male, plasma, po, 20 mg/kg, gavage, 20 mg/kg, read-out: AUC0-t
  AUC0-t: 508 ng·h/mL
Rat pharmacokinetic test; [7]
  AUC(0-inf): 508 ng·h/mL
  MRT: 2 h
  Tmax: 1.33 h
  half-life: 1.03 h
[2]; Mus musculus, RAW264.7, 4 h, RAW 264.7, 0.5 μM, read-out: Tumor necrosis factor-α inhibition rate/%
  inhibition at 0.5 µM: -6%
[2]; Mus musculus, RAW264.7, 4 h, RAW 264.7, 5 μM, read-out: Tumor necrosis factor-α inhibition rate/%
  inhibition at 5 µM: 60.4%
[2]; Mus musculus, RAW264.7, 4 h, RAW 264.7, 50 μM, read-out: Tumor necrosis factor-α inhibition rate/%
  inhibition at 50 µM: 58.1%
[2]; Mus musculus, RAW264.7, RAW 264.7
  IC50: 1900 nM
[2]; RAW 264.7
  inhibitory activity on tumor necrosis factor-α compared with the positive compound Apremilast: comparable or stronger
[3]; Compound concentration: 1 μM, read-out: PDE4D enzyme activity inhibition rate %
  inhibition at 1 µM: 95%
[3]; PDE4D, unit given as mM, read-out: IC50
  IC50: 80 nM
[3]; read-out: IC50 value of PDE4 inhibitory activity
  IC50: < 100 nM
TNF-α secretion in PBMC; 1 μM, read-out: Inhibition rate %
  inhibition at 1 µM: 79.7%
TNF-α secretion in PBMC; 10 μM, read-out: Inhibition rate %
  inhibition at 10 µM: 86.8%
TNF-α secretion in PBMC; read-out: IC50
  IC50: 26 nM
TNF-α secretion in PBMC; read-out: IC50 value
  IC50: 26 nM
[4]; air sac lavage
  number of leukocyte infiltration: reduce
[4]
  secretion level of interleukin-6 in lavage: reduce
  secretion level of tumor necrosis factor-α in lavage: reduce
[4]; 24 h and 1 h before sensitization
  inflammatory response: significantly reduce
[5]; gavage, 10 mg/kg
  AUC0-t: 16601 ng·h/mL
  t1/2: 2.92 h
[5]; intravenous injection, 3 mg/kg
  AUC0-t: 9610 ng·h/mL
[5]; [8]
  AUC(0-inf): 9800 ng·h/mL
  MRT: 2.37 h
  half-life: 1.96 h
[5]; male, plasma, intravenous injection, 3 mg/kg, read-out: AUC0-t
  AUC0-t: 9610 ng·h/mL
[5]; male, plasma, intravenous injection, 3 mg/kg, read-out: Vss
  Vd: 0.96 L/kg
[5]; male, plasma, oral, gavage 10 mg/kg vs intravenous 3 mg/kg, dosage standardized, read-out: F (absolute bioavailability)
  bioavailability: 52.3%
[5]; [9]
  Cmax: 4680 ng/mL
  MRT: 3.61 h
  Tmax: 0.5 h
  half-life: 2.92 h
[5]; male, plasma, po, gavage, 10 mg/kg, read-out: AUC0-t
  AUC0-t: 16600 ng·h/mL
